Measurements as given in patent US20210379151A1 (ACADEMIA SINICA, priority 2018, published 2021).
Counter-ions that a name gives are not always drawn. Like-named read-outs stand apart in the source and are kept apart here.

Columns and labels:
BBB [1] = assay: HPLC quantification of TMZ in brain; type: in vivo; conditions: mice
Protocol: Approximately 100 mg tissue was homogenised in acidified ammonium acetate (200 μl, 10 mM pH 3.5), zinc sulphate (200 μl, 100 mM) and methanol (400 μl), followed by centrifugation at 10,000×g for 30 minutes at 4° C. Supernatant was taken for HPLC analysis. Separation was carried out with a Water e2695 separation module using 80:20 ratio of acetic acid (0.1% v/v) to methanol at a flow rate of 0.8 ml/min in an Atlantis T3 3 μm HPLC column at 35° C. Detection was performed using a Waters 2489 UV/vis detector at 316 nm. Theophylline was used as an internal standard, measured at 275 nm, and results calculated as the peak ratio of TMZ to theophylline.

BBB [2] = assay: Doxorubicin biodistribution (HPLC)
Protocol: Organs were removed, dried, weighed, cut into multiple smaller pieces (approximately 100 mg tissue or 100 μl plasma) then thoroughly homogenised with 1 ml lysis buffer (0.25 M sucrose, 5 mM Tris-HCl, 1 mM MgSO4, 1 mM CaCl2, pH 6.7). 200 μl homogenate was then mixed with 1 ml acidified alcohol (70% ethanol, 0.3 N HCl), left overnight at −20° C., then centrifuged at 10,000×g for 30 minutes at 4° C. Supernatant was taken for HPLC analysis. Separation was via a Waters e2695 separation module, mobile phase 35% 10 mM KH2PO4, 65% methanol, flow rate 1 ml/min in an X-Bridge 5 μm column at 40° C. Detection used a Waters e2475 module (ex 480, em 600 nm).
Aryal et al., J. Control. Release, 204, 60-69 (2015); Kovacs et al., 2014; and Wohlfart et al., J Control Release, 154 (1), 103-107 (2011). […] The drug was allowed to circulate for two hours before the animal was perfused with saline. Doxorubicin was then extracted from the vital organs and quantified by HPLC (FIG. 8c). […] FIG. 2b.

Claudin-5 = conditions: after VEGF administration
BBB [3] = conditions: mice
Protocol: After 30 minutes circulation, 50 ml phosphate buffered saline (PBS) was perfused through the abdominal aorta. Organs were removed, cut into multiple smaller pieces, rinsed, dried, weighed, homogenised in 500 μl formamide, heated at 60° C. overnight and centrifuged at 21,000×g for 15 minutes. Supernatant absorbance was measured at 620 nm with background correction at 740 nm, and unknowns quantified by standard curve. […] Radu et al., J. Vis. Exp., No. 73, e50062 (2013).
Concentrations from multiple pieces of the same organ were averaged. For imaging of Evans blue extravasation, a method from del Valle and colleagues was adapted. del Valle et al., J. Neurosci. Methods, 174 (1), 42-49 (2008). Mice were intracardially perfused with 50 ml PBS followed by 50 ml of Evans blue (1% w/v) in paraformaldehyde (4% w/v). Cryolesion injury, to induce a local area of BBB damage, was used as a positive control. The brain was embedded in optimal cutting temperature compound (OCT) and cryosectioned into 20 μm thick sections for analysis.

P-glycoprotein = conditions: all time points after VEGF
Description: (§1) Brain tumours from mice which died between day 60 to day 70 were selected for immunofluorescence staining. […] Primary antibodies and dilutions used were anti-Ki67 (1:500 GeneTex GTX16667), Isolectin IB4-AlexaFluor 647, anti-GFAP (1:500 AbCam ab68428), anti-Iba1 (1:1000 Wako 019-19741), anti-p-glycoprotein (1:100 AbCam ab170904), anti-pdgfrβ (1:100, ab32570 Abcam), anti-claudin-5 (1:50 34-1600 Thermo Fisher Scientific), anti-CD31 (1:100 550274, BD Pharmingen). Samples were fixed in 4% w/v paraformaldehyde (PFA) pH 6.8 overnight, embedded in paraffin and sectioned. Slides were de-waxed with xylene, rehydrated through graded alcohols to water, then subjected to antigen retrieval, permeabilisation and blocking in accordance with the manufacturers' instructions. Primary antibody was applied overnight at 4° C. diluted in blocking buffer, apart from isolectin, which was applied for one hour at room temperature. Slides were washed 3× with PBS, before the second primary antibody was added and left overnight at 4° C. Secondary antibodies used were goat anti-rabbit IgG-AlexaFluor 568 (Invitrogen A-11011) and goat anti-rat IgG-AlexaFluor 488 (Invitrogen A-11006), applied for one hour at room temperature. At least three separate sections were examined, and at least three images were captured per section. […]

astrocytes = conditions: between treatment groups
Description: as §1

brain blood vessels = test system: brain blood vessels
Protocol: Mice were anaesthetised and perfused with PBS followed by 100 ml 4% PFA in […] phosphate buffer, pH 7.4. The brain was removed and post-fixed in 4% PFA (overnight, 4° C.) and washed in PBS. Coronal brain sections (100 μm thick) were cut on the same day with a cryomicrotome and processed free floating. Sections were immersed in 4% PFA, 2.5% glutaraldehye in PBS (overnight, 4 ° C.), washed with PBS for 5 minutes for 3 times. The specimens were immersed in 1% osmium tetroxide for 45 minutes, dehydrated and embedded with Spurr's low viscosity resin. The sample was then trimmed and sectioned using a Leica EM UC6 ultramicrotome. The ultrathin sections were then double stained with uranyl acetate and lead citrate. Images were acquired using Jeol JEM 1200EX TEM with an acceleration voltage of 80 KV.

[4] = test system: pericyte coverage of blood vessels
Description: (§2) Brain tumours from mice which died between day 60 to day 70 were selected for immunofluorescence staining. […] Primary antibodies and dilutions used were anti-Ki67 (1:500 GeneTex GTX16667), Isolectin IB4-AlexaFluor 647, anti-GFAP (1:500 AbCam ab68428), anti-Iba1 (1:1000 Wako 019-19741), anti-p-glycoprotein (1:100 AbCam ab170904), anti-pdgfrβ (1:100, ab32570 Abcam), anti-claudin-5 (1:50 34-1600 Thermo Fisher Scientific), anti-CD31 (1:100 550274, BD Pharmingen). Samples were fixed in 4% w/v paraformaldehyde (PFA) pH 6.8 overnight, embedded in paraffin and sectioned. Slides were de-waxed with xylene, rehydrated through graded alcohols to water, then subjected to antigen retrieval, permeabilisation and blocking in accordance with the manufacturers' instructions. Primary antibody was applied overnight at 4° C. diluted in blocking buffer, apart from isolectin, which was applied for one hour at room temperature. Slides were washed 3× with PBS, before the second primary antibody was added and left overnight at 4° C. Secondary antibodies used were goat anti-rabbit IgG-AlexaFluor 568 (Invitrogen A-11011) and goat anti-rat IgG-AlexaFluor 488 (Invitrogen A-11006), applied for one hour at room temperature. At least three separate sections were examined, and at least three images were captured per section. For frozen sections, samples were perfusion fixed then submerged in 4% paraformaldehyde (PFA), cryoprotected in 30% w/v sucrose solution, then frozen in OCT, sectioned and stained as above, continuing on from blocking. H&E staining (Mayers) followed standard lab protocols. Images were captured using a Zeiss AxioScop microscope with AxioFluor objective lenses and AxioVision software, or a Model-Zeiss LSM 700 Stage confocal microscope.
(§3) GraphPad Prism 7.0b (Mac) was used for all statistical analysis and graph generation. For before-after analyses, paired t-test was used, and for grouped analyses one or two-way ANOVA (analysis of variance) with Tukey's post-test to correct for multiple comparisons were used. For tumour survival analyses, deaths were recorded and used to generate Kaplan-Meier survival curves which were compared using Mantel-Cox log rank tests. IVIS images of tumour luminescence and nanoparticle fluorescence were quantified using Living Image 4.0 software for Mac. MRI DICOM images were sorted in MicroDicom (Windows) and SNR calculation was performed in FIJI/ImageJ (Mac) using the measure tool. For heatmap generation, voxels within the animal were compared to the average of a 64*64 voxel region in the corner of the frame and the difference was scaled from 0 to 100, using Python. Adjustments to immunofluorescence image brightness and contrast were made to improve visual clarity and were applied equally to all images within a series. For colocalisation analysis, the raw images were analysed in Zeiss ZEN software. The threshold for no colocalisation was established using the DAPI/CD31 channels, and that threshold was then applied to the other channels. Pericyte alignment analysis was carried out using the freehand line selection tool in ImageJ. Figures were assembled in Affinity Designer (Mac).

claudin 5 = test system: claudin 5
Description: as §2, §3

[5] = test system: key genes related to BBB integrity
Protocol: Samples of mouse cerebral cortex weighing approximately 50 mg were homogenised in Trizol, and total RNA extracted via the manufacturer's protocol, then quantified by Nanodrop. Samples were reverse transcribed to cDNA using a SuperScript III Reverse-Transcriptase Kit (Life Technology). OmicsGreen qPCR SYBR Green master mix (Omics Bio, Taiwan) was used to monitor amplification using an Applied Biosystems 7500 Real-Time PCR system. GAPDH was used an internal control.

[6] = test system: DBTRG-05MG human glioblastoma cell line; assay: MTT assay cell viability; type: cell-based; conditions: VEGF up to 100 ng/ml
Protocol: DBTRG-05MG human glioblastoma cells were used in this study. DBTRG-05MG cells were routinely cultured at 37° C. in RPMI 1640 media supplemented with 10% FBS, 1 mM sodium pyruvate and 1% penicillin/streptomycin. MTT assay was carried out in accordance with the manufacturer protocol. For GBM tumour generation, 300,000 live DBTRG-05MG cells, suspended in 6 μl sterile saline, were administered to 6 week old BALB/c NU mice by stereotactic injection, […] The location was 2 mm posterior to the bregma, 1.5 mm laterally in the right cerebral hemisphere, and 2.5 mm deep from the dura, thus delivering the cells into the thalamus. Baumann et al., J. Vis. Exp., No. 67, 3-6 (2012). Bone wax was applied to the skull and the skin was closed with sutures. The success rate of xenograft tumour formation was approximately 90%. Animal deaths were recorded when the animal succumbed from tumour progression, or upon sacrifice if they met pre-determined criteria including severe cachexia (loss of >25% starting body weight), inability to feed, and lack of response to toe-pinch stimulus. Gholamin et al., Cureus, 4, 1-14 (2013).

BBB [7] = conditions: pigs, VEGF vs control
Description: One minute later, a series of three post-contrast images were taken at the same settings. The two pre-contrast images were averaged, and the post contrast image with the highest SNR from each animal was selected for analysis.

BBB [8] = conditions: mice; remark: listed apart in the source
Protocol: For mice, a Pharmascan 7T 16-cm bore horizontal system was operated by a technician. […] Pre-contrast T1-weighted spin echo images were taken (repetition time (TR)=400 ms, echo time (TE)=10.8 ms, field of view (FOV)=2×2 cm, number of excitations (NEX)=8, slice thickness 0.8 mm). […] Post-contrast T1-weighted images were acquired one minute after contrast agent injection. The SNR was calculated by dividing the signal of a ROI (mean pixel intensity) by the standard deviation of the background noise. All image acquisition, SNR measurement and tumour volume measurement was performed by two MRI operating technicians, who were blinded to the study groups.

BBB [9] = conditions: antibody 45 minutes following VEGF; preliminary evidence
Protocol: The antibody was allowed to circulate for 2 hours, then mice were perfused with 50 mL saline followed by 50 mL paraformaldehyde (4% w/v). The brain was removed, kept in 4% PFA overnight, then processed for frozen sections. As a positive control, 5 μl of antibody was injected directly into the brain prior to perfusion. Frozen sections were then stained using secondary antibody conjugated to Alexa 488. As a negative control, brain sections from an untreated animal were used. As a second positive control, a brain section from an untreated animal was stained with anti-nrCAM using conventional lab techniques (1hr room temperature). All images, aside from the stained positive control, were taken at fixed exposure lengths. The intensity of the green channel was quantified in ImageJ.

[10] = GBM tumour region, VEGF pre-treatment
[11] = mouse brain 45 minutes or 4 hours following VEGF

Cn1nnc2c(C(N)=O)ncn2c1=O [TMZ, Temozolomide]
brain concentration of TMZ after VEGF pre-treatment (BBB [1]; TMZ 20 mg/kg): did not further enhance
TMZ concentration in the brain after VEGF pre-treatment (BBB [1]; VEGF or 10-fold higher VEGF): does not significantly increase

COc1cccc2c1C(=O)c1c(O)c3c(c(O)c1C2=O)C[C@@](O)(C(=O)CO)C[C@@H]3O[C@H]1C[C@H](N)[C@H](O)[C@H](C)O1 [Doxorubicin, Doxorubicin Hydrochloride]
doxorubicin concentration in brain after VEGF pre-treatment vs. control (BBB [2]; 8 mg/kg 45 minutes after VEGF, mice): statistically significant increase
systemic Doxorubicin entering the brain (BBB [2]; healthy control mice, 8 mg/kg, two hours circulation): less than 0.1%

VEGF
Claudin-5 protein expression (Western blot) (Claudin-5): trend towards reduced protein expression
Evans blue uptake in kidney (BBB [3]; 45 minutes after VEGF): increase
concentration of Evans blue in brain tissue compared to control-treated animals (BBB [3]; Evans blue 45 minutes after VEGF, 30 minutes circulation): 4.85 fold
concentration of Evans blue in brain tissue compared to control (BBB [3]; Evans blue 4 hours following VEGF): no increase was detected
P-glycoprotein staining (P-glycoprotein): appeared uniformly on the membrane of blood vessels at all time points
astrocyte morphology (GFAP) (astrocytes): no obvious change
morphology of brain blood vessels (TEM) (brain blood vessels; 15 minutes following VEGF injection): slightly dilated and lacking adjacent pericytes
morphology of brain blood vessels (TEM) (brain blood vessels; 45 minutes following VEGF): no longer dilated
morphology of brain blood vessels (TEM) (brain blood vessels; four hours following VEGF): both vessels and pericytes appeared normal
pericyte coverage of blood vessels [4, 10]: 28.9%
pericyte coverage of blood vessels ([4]; healthy brain, 15 minutes after VEGF): 57.6%
pericyte coverage of blood vessels ([4]; healthy brain, 45 minutes after VEGF): 86.2%
pericyte coverage of blood vessels ([4]; healthy brain, 4 hours after VEGF): 83.0%
colocalisation of claudin 5 and CD31 (claudin 5; [10]): 48.5%
colocalisation of claudin 5 and CD31 (claudin 5; healthy brain, 45 minutes following VEGF): 55.8%
colocalisation of claudin 5 and CD31 (claudin 5; healthy brain, 4 hours following VEGF): 42.7%
p-glycoprotein gene expression (Abcb1a) ([5]; following VEGF at the given dose): No change
expression of BBB transporters Slc2a1 (GLUT-1) and Slc6a8 (CRT) [5, 11]: increase
expression of tight junction components Tjp2 (ZO-2) and Cldn5 (Claudin 5) [5, 11]: decrease
effect on DBTRG-05MG cell viability [6]: did not affect
SNR enhancement of the central cerebral sinus (BBB [7]): no significant difference
increase in average SNR of the cortex, post- vs pre-contrast (BBB [8]; Gd given 45 minutes following VEGF): 16%
SNR enhancement of the cortex, post- vs pre-contrast (BBB [8]; Gd given 4 hours after VEGF): less than 5%
signal enhancement of area surrounding central cerebral sinus (BBB [8]; VEGF vs control groups): no significant difference between the groups
passage of systemically injected IgG antibody into the brain (BBB [9]): allows the passage of systemically injected IgG antibody into the brain
